Values quoted from earlier work as cited in patent US20020031490A1, “Method for preparing resinates” (priority 2000, published 2002).

In the case of `COc1ccc2c(c1)c(CC(=O)O)c(C)n2C(=O)c1ccc(Cl)cc1` [indomethacin], the “solubility of indomethacin in water” value is listed as 14 ppm.
